In PMC4872784 (Oncotarget, 2016):
Several values for one entry are separate records, joined by “and”; a condition that tells them apart may be missing. Equal entries are not always repeated. Structures can show the parent of a compound that is named as a salt.

Key:
[1] = system: KOPN8 cells; test: alamarBlue cytotoxicity assay, 48h; format: cell-based, human; settings: RPMI + 10% FBS
Description: (§1) Following subtraction of background fluorescence from all wells, fluorescence of drug-treated cells was normalized to that of vehicle (<0.5% DMSO)-treated cells to determine the effect of each drug concentration on viability. Each cell line was tested in triplicate and in at least three independent experiments. IC50 (concentration that inhibits cell growth by 50%) values were calculated using CompuSyn software (ComboSyn, Paramus, NJ). […] In addition several cell lines were initially cultured and tested in alternative media (Supplementary Table S2). […] Colony counts were normalized to vehicle-treated controls (100%). Three independent experiments were performed.
(§2) In most experiments, cytotoxicity was assessed using alamarBlue assays (Life Technologies, Grand Island, NY). In experiments using NAC and DFO, which can interfere with alamarBlue assay performance, Trypan Blue dye exclusion was used instead. […]
(§3) experiments performed in triplicate. […] Age refers to age […]
(§4) at the time of leukemia diagnosis of the patient from whom the cell line was derived. (–) Indicates information unavailable.
(§5) *Cell lines with FLT3/ITD mutations.
(§6) *The MV-4–11 cell line was derived from a patient with a biphenotypic B-myelomonocytic leukemia; K562 was derived […]
(§7) 1A. p53 status was obtained from http://cancer.sanger.ac.uk/cell_lines/cbrowse/all and http://p53.free.fr/Database/Cancer_ cell_lines/Leukemia_cancer. html. WT: wild type. Mut: mutant. SM: single mutation. DM: double mutation. MM: multiple mutations. Fs: Frameshift mutation. Null: protein expression undetectable. […]
(§8) measured via alamarBlue assay. […]

[2] = system: MOLM14 cells; test: viable cell counts via Trypan Blue dye exclusion, 48h; format: cell-based, human; settings: read-out: approximate 48h IC50
Description: A. Quantification of the percentage of early apoptotic cells (Annexin-V+/7-AAD-) from three independent experiments in which cells were stained for apoptosis with 7-AAD and Annexin-V then analyzed by flow cytometry. […] C. […] 16h after addition of drugs, cells were washed and analyzed by flow cytometry for CM-H2DCFDA fluorescence (indicating total ROS generation) in the FL1 channel. Mean Fluorescence Intensity (MFI) was normalized to that of vehicle control (0.5% DMSO) with no pretreatment. […] Viable cell counts, obtained via Trypan Blue dye exclusion, were normalized to vehicle (0.02% DMSO)-treated samples +/– pretreatment.
In most experiments, cytotoxicity was assessed using alamarBlue assays (Life Technologies, Grand Island, NY). In experiments using NAC and DFO, which can interfere with alamarBlue assay performance, Trypan Blue dye exclusion was used instead.

[3] = system: MOLM14 cells; test: alamarBlue cytotoxicity assay, 48h; format: cell-based, human; settings: MOLM14 (AML), 48h, RPMI + 10% FBS
Description: as §1, §2, §3, §4, §5, §6, §7, §8

[4] = in vivo; settings: male, NSG, mouse, plasma, po, 200 mg/kg
Description: (§9) Plasma samples were obtained from 3-6 male NSG mice per time point (15min-24h after drug administration). Symbols represent concentrations of compound by LC/MS-MS detection.
(§10) Blood samples were collected via retro-orbital bleeding into EDTA-coated tubes. PK samples were centrifuged to obtain plasma, which was stored frozen (−80°C) until liquid chromatography/triple quadrupole mass spectrometry (LC/MS-MS) analysis.
(§11) were separated using an Agilent Zorbax Eclipse C18 column (2.1 mm x 50 mm, 3.5 μm) using gradient mobile phase
(§12) (acetonitrile and 2 mM ammonium acetate both containing 0.1% formic acid) and a gradient flow rate (0.2 to 0.4 ml/
(§13) min). An AB Sciex 5500 triple quadrupole mass spectrometer was used for detection. The m/z transitions used were
(§14) The calibration range was 5–1,000 ng/mL for all analytes. Mean drug concentrations were calculated at each time point. PK parameters (plasma
(§15) half-life [T1/2]; time to reach Cmax [Tmax]; maximum plasma concentration [Cmax]; area under the plasma concentration-
(§16) time curve [AUC] from time zero to the last measurable concentration [AUClast]; AUC from time zero to infinity [i.e.,
(§17) the AUClast + the extrapolated AUC from AUClast to infinity; AUC0–∞]; apparent volume of distribution [Vz/F]; body
(§18) weight-adjusted apparent clearance [CL/F/kg]) were calculated from mean drug concentration-time data using non-
(§19) the r2 of the elimination rate constant (λ ) was < 0.9, the AUC , CL/F, and T were not reported (NR).

[5] = plasma pharmacokinetics after single oral dose; settings: single oral dose AS 200 mg/kg, NSG mice
Description: as §9, §10, §11, §12, §13, §14, §15, §16, §17, §18, §19

[6] = Homo sapiens, KOPN-8, KOPN8 (B-ALL)

## CO[C@@H]1[C@H](N(C)C(=O)c2ccccc2)C[C@H]2O[C@]1(C)n1c3ccccc3c3c4c(c5c6ccccc6n2c5c31)C(=O)NC4 [MID, midostaurin]
[1]; [6]
  IC50: 210 nM

## CC(=O)N[C@@H](CS)C(=O)O [NAC, N-acetyl cysteine]
[2]; MOLM14, preliminary experiments
  IC50: ~25000 nM

## COc1cccc2c1C(=O)c1c(O)c3c(c(O)c1C2=O)C[C@@](O)(C(=O)CO)C[C@@H]3O[C@H]1C[C@H](N)[C@H](O)[C@H](C)O1 [DOX, doxorubicin]
[3]; Homo sapiens, MOLM-14
  IC50: 79 nM
[1]; [6]
  IC50: 30 nM

## COc1cc([C@@H]2c3cc4c(cc3[C@@H](O[C@@H]3O[C@@H]5CO[C@@H](C)O[C@H]5[C@H](O)[C@H]3O)[C@H]3COC(=O)[C@H]23)OCO4)cc(OC)c1O [ETO, etoposide]
[3]; Homo sapiens, MOLM-14
  IC50: 242 nM
[1]; [6]
  IC50: 150 nM

## C[C@H]1[C@@H](O)O[C@@H]2O[C@@]3(C)CC[C@H]4[C@H](C)CC[C@@H]1[C@@]24OO3 [DHA, dihydroartemisinin]
[4]
  AUC(0-inf): 1300 ng·h/mL
  AUC(0-t): 1290 ng·h/mL
  CL/F: 2050 mL/min/kg
  Cmax: 1630 ng/mL and 5.74 µM
  Tmax: 15 min
  Vd/F: 103 L/kg
  half-life: 34.8 min
[3]; Homo sapiens, MOLM-14
  IC50: 1020 nM
[1]; [6]
  IC50: 351 nM
[5]; plasma
  T1/2: < 60 min
[5]
  time by which plasma declined to undetectable levels: ≤ 4 h

## C[C@]12O[C@H](C[C@]1(O)CO)n1c3ccccc3c3c4c(c5c6ccccc6n2c5c31)CNC4=O [LES, lestaurtinib]
[3]; Homo sapiens, MOLM-14
  IC50: 3 nM
[1]; [6]
  IC50: 45 nM

## CC(=O)N(O)CCCCCNC(=O)CCC(=O)N(O)CCCCCNC(=O)CCC(=O)N(O)CCCCCN [DFO, deferoxamine mesylate]
[2]; Homo sapiens, MOLM-14, 48 h
  IC50: ~11000 nM

## CNC(=O)c1cc(Oc2ccc(NC(=O)Nc3ccc(Cl)c(C(F)(F)F)c3)cc2)ccn1 [SOR, sorafenib]
[3]; Homo sapiens, MOLM-14
  IC50: 4 nM
[1]; [6]
  IC50: 4200 nM

## Nc1ccn([C@@H]2O[C@H](CO)[C@@H](O)[C@@H]2O)c(=O)n1 [ARA, cytosine arabinoside]
[3]
  IC50: 286 nM
[1]; KOPN8 (B-ALL)
  IC50: 73 nM
